# Measurements as given in patent US11547708B2, “Compositions and methods to protect mammalian tissue against cold and other metabolic stresses” (THE UNITED STATES OF AMERICA, AS REPRESENTED BY THE …, priority 2017, dated 2023).
# Where a SMILES comes first, the peptide text is derived from it. The star is where a group is joined. Cbz = O=C(OCc1ccccc1)*
# Columns and labels:
# Type in all cases: cell-based
# human iPSC-neurons [1] = assay: Detection of protein aggregates on neuronal microtubules; conditions: 4° C. for 4 h, pre-incubation
# Protocol: After treatments, cultured neurons were fixed with 4% paraformaldehyde for 10 minutes and then permeabilized and washed with 0.1% Triton X-100 in phosphate buffered saline. Protein aggregates were visualized by a dye that intercalates into the denatured and aggregated proteins and becomes fluorescent (Proteostat aggresome detection kit, Enzo, Farmingdale, N.Y.; see Table 2) (Shen, 2011). For accumulation of protein aggregates on the neuronal microtubules, cells were stained with TUBB3 antibody and the protein aggregate dye, and images (188.94 μm×188.94 μm) were taken. In each image, the number of protein aggregates residing on the microtubules was counted and divided by the total length of the TUBB3+ microtubule paths.
# human iPSC-neurons [2] = assay: Evaluation of neuronal microtubule stability in response to cold (tubulin immunofluorescence, TUBB3+ microtubule tracing)
# Protocol: The temperature-dependent experiments in this study were performed at ambient CO2 concentration, which required the use of hibernate-medium (Table 2) to maintain the physiological pH. Experiments were conducted by first incubating cultured neurons (human iPSC-derived, GS iPSC-derived, GS primary, or rat primary cultures) in hibernate-medium for 30 min at room temperature. During this time (pre-incubation), drug treatments (see Other Reagents, Table 1) were introduced to test cold resistance and microtubule stability. The cell culture dishes were then kept in an ambient 37° C. incubator, or in a 4° C. refrigerator. […] The pH of hibernate-medium was stable and maintained the pH between 7.0 and 7.4 even after 16-h incubation at 4° C.
# Cultured neurons or rat retinal explants with or without treatments were fixed with 4% paraformaldehyde, permeabilized and washed with 0.1% Triton X-100 in phosphate buffered saline, and stained by antibodies against TUBB3. TUBB3+ microtubule paths in images of 188.94×188.94 μm^2 from human iPSC-derived neuronal cultures and images of 67.48×67.48 μm^2 from rat whole-mount retinas were traced with the ‘Simple Neurite Tracer’ plugin in ImageJ.
# [3] = test system: rat retinal ganglion cells (RGCs); assay: Multielectrode array (MEA) recordings of RGC activity in cold-exposed rat retina explants; conditions: 4° C. for 4 h, Taxol 10 μM
# Protocol: All experiments were carried out under dim red light. Rat retina explants were removed and cut into smaller pieces in hibernate-medium, and divided into different treatment groups for pre-incubation with drugs promoting microtubule stability or a DMSO vehicle control at room temperature for 30 minutes. The cold-exposed groups were incubated in the refrigerator, while the fresh control samples were incubated on the bench in dark at room temperature. […] After 4- or 24-hour incubation, the cold-exposed retinal explants were placed on the bench for 10-15 minutes, and washed twice with fresh hibernate-medium. Retinal explants from all groups were then transferred to oxygenated (95% O2/5% CO2) bicarbonate-buffered AMES medium at room temperature. The sclera and RPE were removed prior to flat mounting the neural retina with the ganglion cell (RGC)-side facing down onto the MEA.
# During MEA recording, the neural retinas were perfused with 95% O2/5% CO2-balanced AMES perfusion at 37° C. to measure the spontaneous firing activity of the rat RGCs over the course of 15 minutes. […] For MEA data processing and analyses, the firing spikes of RGCs were first filtered and recorded in MC Rack with a high-pass filter set at 200 Hz, a low-pass filter set at 3000 Hz, and the automatic standard deviation for spike detection threshold was set at −6. […]
# human iPSC-neurons [4] = assay: Live cell imaging of lysosomes using Magic Red and DND-26 (lysosomal membrane permeabilization, LMP); conditions: 4-h at 4° C.
# Protocol: GS and Human iPSC-derived neuronal cultures were prepared in duplicate and incubated with hibernate-medium containing Magic Red (1:1000; ImmunoChemistry Technologies, Bloomington, Minn.) at 37° C. for 25 min, followed by the addition of LysoTracker Green DND-26 (50 nM; Thermo Fisher, Waltham, Mass.; see Table 1) for 5 min. The dye-containing medium was then replaced with fresh hibernate-medium, and one group of cultures was incubated at 4° C. for 1, 4 or 16 h, while the other group remained at 37° C. serving as normal controls. The cold-exposed group was subjected to confocal imaging at various temperatures (10° C., room temperature, or 37° C.), while the control group was imaged at either room temperature or 37° C. […] Magic Red becomes fluorescent after being cleaved by the lysosomal protease cathepsin B, while DND-26 is an acidotropic probe that accumulates in the acidic lysosomal vesicles. When LMP occurs, Magic Red and DND-26 signals become diffused within the cytoplasm of the affected cells. It was determined that cells have LMP if they contain a single Magic Red-stained particle of diameter >5 μm, which is about the size of the neuronal cell nucleus.
smiles,measurement,setting,value
CC(C)C[C@@H](C=O)NC(=O)[C@H](CC(C)C)NC(=O)[C@H](CC(C)C)NC(=O)OCc1ccccc1 [MG-132] (Cbz-Leu-Leu-Leu-aldehyde),protein aggregates along microtubule processes,human iPSC-neurons [1],did not show any further increase in aggregation
CCOC(=O)c1ccc(N2NC(=O)/C(=C/c3ccc([N+](=O)[O-])o3)C2=O)cc1 [PYR-41],microtubule morphology after pre-treatment with ubiquitination inhibitor,"human iPSC-neurons [2]; human iPSC-neurons, 4-h incubation at 4° C.",did not improve microtubule morphology
CC(=O)O[C@H]1C(=O)[C@@]2(C)[C@H]([C@H](OC(=O)c3ccccc3)[C@]3(O)C[C@H](OC(=O)[C@H](O)[C@@H](NC(=O)c4ccccc4)c4ccccc4)C(C)=C1C3(C)C)[C@]1(OC(C)=O)CO[C@@H]1C[C@@H]2O [Taxol],preservation of microtubules in cold,"human iPSC-neurons [2]; human iPSC-neurons at 4° C., 10 μM (FIG. 6B)",preserved microtubules in cold
same,"protection of neuronal microtubules, low dose","human iPSC-neurons [2]; human iPSC-neurons, 16-h cold exposure, 0.1 μM",did not protect
same,spontaneous RGC activity / firing rate distributions (MEA),[3],did not preserve RGC activity
"O=C1O[C@H]([C@@H](O)CO)C(O)=C1O [vitamin C, ascorbic acid]",LMP (number of cells containing diffuse Magic Red),human iPSC-neurons [4],alleviated LMP
